This note sets out measurements from ChEMBL document CHEMBL1201862, “PubChem BioAssay data set” (2004).

Test [1] relates to Streptococcus. Kind of test: GAS UMAA2166 growth inhibition – luminescence, BacTiterGlo, counter-screen for streptokinase expression inhibitor project, dose response (AID 1915).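 Further: potency for reduction of bacterial viability or growth.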 Format: functional, organism-based.
In test [2] the test system is Streptococcus sp. 'group A'. Kind of test: Streptococcus pyogenes SK(-)GAS viability under kanamycin – luminescence, BacTiterGlo, confirmation, counter-screen for streptokinase expression inhibitor project, dose response (AID 1900). It is filed as functional, organism-based.
Test [3] concerns the target Cytochrome P450 3A4 (Homo sapiens, UniProt P08684).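 Further: CYP3A4 tested as one member of a cytochrome P450 panel screen.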
For test [4], the target named is Cytochrome P450 2C9 (Homo sapiens, UniProt P11712).
For test [5], the target named is Cytochrome P450 2D6 (Homo sapiens, UniProt P10635).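 Further: CYP2D6 member of a cytochrome P450 panel assay.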
Test [6] deals with T1, Cytochrome P450 1A2 (Homo sapiens, UniProt P05177).
T1 sequence (P05177 whole entry): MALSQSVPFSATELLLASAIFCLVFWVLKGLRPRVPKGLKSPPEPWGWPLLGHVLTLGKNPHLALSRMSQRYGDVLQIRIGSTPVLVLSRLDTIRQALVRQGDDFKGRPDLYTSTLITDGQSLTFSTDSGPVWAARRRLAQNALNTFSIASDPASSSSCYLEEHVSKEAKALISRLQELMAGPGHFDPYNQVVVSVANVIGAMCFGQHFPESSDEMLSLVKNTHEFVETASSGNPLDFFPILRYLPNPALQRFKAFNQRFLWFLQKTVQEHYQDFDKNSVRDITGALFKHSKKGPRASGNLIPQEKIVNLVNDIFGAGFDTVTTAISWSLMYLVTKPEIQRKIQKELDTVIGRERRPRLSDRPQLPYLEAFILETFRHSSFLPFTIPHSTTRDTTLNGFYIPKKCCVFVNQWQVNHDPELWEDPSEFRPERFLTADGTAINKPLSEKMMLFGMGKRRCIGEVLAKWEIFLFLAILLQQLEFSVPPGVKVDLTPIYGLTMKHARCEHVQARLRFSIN

The target in test [7] is Cytochrome P450 2C19 (Homo sapiens, UniProt P33261). Kind of test: Cytochrome panel assay with activity outcomes. Panel member name: p450-cyp2c19 Compounds with AC50 equal or less than 10 uM are considered active. It is filed as functional. To be noted: read-out: AC50.

The source made the active and inactive calls.

The term EC50 denotes the concentration needed to bring the measured effect to its halfway point. One may read the AC50 as the midpoint of the concentration-response curve, whichever way the signal moves.

Cytochrome P450 2D6, sequence (P10635 whole entry): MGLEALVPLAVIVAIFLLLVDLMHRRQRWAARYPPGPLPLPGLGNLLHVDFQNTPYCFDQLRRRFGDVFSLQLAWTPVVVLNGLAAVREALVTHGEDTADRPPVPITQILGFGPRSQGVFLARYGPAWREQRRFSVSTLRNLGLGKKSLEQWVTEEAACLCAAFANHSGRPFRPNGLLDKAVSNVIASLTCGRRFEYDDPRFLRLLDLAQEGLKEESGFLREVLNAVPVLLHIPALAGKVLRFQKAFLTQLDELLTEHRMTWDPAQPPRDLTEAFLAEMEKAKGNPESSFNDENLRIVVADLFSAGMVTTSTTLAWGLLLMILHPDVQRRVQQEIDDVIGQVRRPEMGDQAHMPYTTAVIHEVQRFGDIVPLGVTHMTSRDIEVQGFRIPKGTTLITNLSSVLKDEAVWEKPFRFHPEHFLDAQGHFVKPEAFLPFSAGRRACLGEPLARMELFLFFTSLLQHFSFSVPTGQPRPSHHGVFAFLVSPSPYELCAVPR
Cytochrome P450 3A4, sequence (P08684 whole entry): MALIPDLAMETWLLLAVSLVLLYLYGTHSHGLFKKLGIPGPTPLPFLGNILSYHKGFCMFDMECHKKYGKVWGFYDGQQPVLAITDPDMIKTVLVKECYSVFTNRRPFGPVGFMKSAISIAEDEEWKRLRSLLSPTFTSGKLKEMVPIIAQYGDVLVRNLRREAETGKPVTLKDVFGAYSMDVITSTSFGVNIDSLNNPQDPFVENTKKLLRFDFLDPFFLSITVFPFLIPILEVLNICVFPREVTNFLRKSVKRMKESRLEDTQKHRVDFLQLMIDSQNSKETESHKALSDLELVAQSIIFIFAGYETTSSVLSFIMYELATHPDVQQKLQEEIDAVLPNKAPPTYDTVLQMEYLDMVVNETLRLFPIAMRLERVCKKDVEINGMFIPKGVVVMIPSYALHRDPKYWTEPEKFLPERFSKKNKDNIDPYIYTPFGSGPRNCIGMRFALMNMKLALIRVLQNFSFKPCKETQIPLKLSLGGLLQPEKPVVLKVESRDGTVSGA
Cytochrome P450 2C9, sequence (P11712 whole entry): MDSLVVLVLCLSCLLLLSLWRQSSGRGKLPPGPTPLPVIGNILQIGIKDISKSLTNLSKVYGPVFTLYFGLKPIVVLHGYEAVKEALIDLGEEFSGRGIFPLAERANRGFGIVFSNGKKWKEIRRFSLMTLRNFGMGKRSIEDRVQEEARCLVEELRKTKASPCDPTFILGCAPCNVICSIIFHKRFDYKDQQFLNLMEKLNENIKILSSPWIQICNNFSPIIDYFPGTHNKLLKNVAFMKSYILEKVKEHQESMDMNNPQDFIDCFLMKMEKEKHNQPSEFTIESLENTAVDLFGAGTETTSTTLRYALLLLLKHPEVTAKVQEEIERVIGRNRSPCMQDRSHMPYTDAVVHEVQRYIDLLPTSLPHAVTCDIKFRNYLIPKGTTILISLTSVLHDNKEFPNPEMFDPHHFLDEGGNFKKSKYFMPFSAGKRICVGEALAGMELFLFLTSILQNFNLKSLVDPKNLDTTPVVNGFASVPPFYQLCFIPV
Cytochrome P450 2C19, sequence (P33261 whole entry): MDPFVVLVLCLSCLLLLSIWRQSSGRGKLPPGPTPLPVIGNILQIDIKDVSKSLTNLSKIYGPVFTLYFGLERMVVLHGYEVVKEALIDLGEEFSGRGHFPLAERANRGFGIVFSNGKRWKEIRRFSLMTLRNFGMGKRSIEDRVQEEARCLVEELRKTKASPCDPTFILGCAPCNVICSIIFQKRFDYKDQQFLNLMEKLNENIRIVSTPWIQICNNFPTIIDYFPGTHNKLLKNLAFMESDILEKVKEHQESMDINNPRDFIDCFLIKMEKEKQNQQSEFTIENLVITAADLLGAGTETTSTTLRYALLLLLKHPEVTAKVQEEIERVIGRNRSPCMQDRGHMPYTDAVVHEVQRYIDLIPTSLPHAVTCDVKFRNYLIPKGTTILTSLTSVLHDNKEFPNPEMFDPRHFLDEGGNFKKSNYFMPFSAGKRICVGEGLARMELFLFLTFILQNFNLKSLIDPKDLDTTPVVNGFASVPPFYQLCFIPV

`Cc1nnc(SC(C(=O)Nc2cc(Cl)cc(Cl)c2)c2ccccc2)nc1O` (centres undefined): the EC50 in test [1] is > 150 µM (not active); in test [2], 10.6 µM (active).
In the case of `C[C@@H](C(=O)O)c1ccc(C(=O)c2ccccc2)s1`, the AC50 in test [3] is 12.6 µM (inconclusive); in test [4], 15.8 µM (inconclusive); in test [5] it was 7.94 µM (inconclusive); in test [6], 0.251 µM (inconclusive).
In the case of `CCCCCCCCCCCCC(=O)N1CCCC[C@H]1CNC(=O)[C@@H](N)CCCCN`, the figures for the AC50 in test [4], in test [5] and in test [6] were 10 µM (inconclusive), 25.1 µM (inconclusive) and 31.6 µM (inconclusive), respectively.
On to `O=C(c1cc(C(F)(F)F)cc(C(F)(F)F)c1)N1CCC2(CCCN(c3ncccn3)C2)CC1`, for which the AC50 was 15.8 µM (inconclusive) in test [3], 10 µM (inconclusive) in test [5], 31.6 µM (inconclusive) in test [6] and 20 µM (inconclusive) in test [7].
Take `Cc1cccc(CNc2ccnc(-c3cccc(C#N)c3)n2)c1`: the concentration at half-maximal activity (AC50) is 0.794 µM (inconclusive) in test [4] and 25.1 µM (inconclusive) in test [5].
Regarding `Cc1cc(C)c2c(-n3cccc3)nn(CC#N)c2n1`, the AC50 in test [3] was 15.8 µM (inconclusive); in test [4], 14.1 µM (inconclusive); in test [5], 10 µM (inconclusive).
Take `N#C/C(=C\c1c[nH]c2ccccc12)C(=O)c1ccc(O)c(O)c1`: the concentration at half-maximal activity (AC50) in test [4] is 31.6 µM (inconclusive); in test [5] it was 25.1 µM (inconclusive); in test [7], 31.6 µM (inconclusive).
`CCCCCCCCCOc1ccc2[nH]cc(CCN)c2c1`: the figures for the AC50 in test [3], in test [4] and in test [5] were 39.8 µM (inconclusive), 25.1 µM (inconclusive) and 25.1 µM (inconclusive), respectively.
